Source: US20100197627A1, “PANCREATIC CANCER TREATMENT” (priority 2003, published 2010)

Legend:
[1] = test system: MIA-PaCa-2-RFP pancreatic cancer; assay: Efficacy of oral CS-682 in surgical orthotopic implantation (SOI) mouse model of MIA-PaCa-2-RFP pancreatic cancer (Example 1); format: in vivo, nude mice (NCr-nu); details: for median survival: control 17 days; for mice with evident intra-abdominal fluid (ascites) on examination: 100% of controls within 16 days
Protocol: The model employed pancreatic tumors derived from the MIA-PaCa-2 pancreatic cancer cell line.
The MIA-PaCa-2 pancreatic cancer cell line was obtained from the American Type Culture Collection (Rockville, Md.), maintained in DMEM media supplemented with 10% heat-inactivated fetal bovine serum and 1% penicillin and streptomycin (Gibco-BRL, Life Technologies, Inc., Grand Island, N.Y.) and cultured at 37° C. in a 5% CO2 incubator.
The pDsRed-2 vector (Clontech Laboratories Inc., Palo Alto, Calif.) was used to engineer MIA-PaCa-2 clones stably expressing RFP. This vector expresses RFP and the neomycin resistance gene on the same bicistronic message. pDsRed-2 was produced in PT67 packaging cells. RFP transduction was initiated by incubating 20% confluent MIA-PaCa-2 cells with retroviral supernatants of the packaging cells and DMEM for 24 hours. Fresh medium was replenished at this time and cells were allowed to grow in the absence of retrovirus for 12 hours. This procedure was repeated until high levels of RFP expression, as determined using fluorescence microscopy, were achieved. Cells were then harvested by trypsin/EDTA and subcultured into selective medium that contained 200 μg/ml G418. The level of G418 was increased to 2000 μg/ml stepwise. Clones expressing high levels of RFP were isolated with cloning cylinders as needed, and were amplified and transferred using conventional culture methods. High RFP-expression clones were isolated in the absence of G418 for 10 passages to select for stable expression of RFP in vivo.
Male nude mice (NCr-nu) between 4-6 weeks of age were maintained in a barrier facility on HEPA-filtered racks. The animals were fed with autoclaved laboratory rodent diet (Teckland LM-485; Western Research Products, Orange, Calif.). Animal experiments were performed in accordance with the Guidelines for the Care and Use of Laboratory Animals (NIH Publication Number 85-23) under assurance number A3873-01.
Red-fluorescent human pancreatic cancer xenografts were established in nude mice by surgical orthotopic implantation (SOI). Briefly, MIA-PaCa-2-RFP tumors in the exponential growth phase, grown subcutaneously in nude mice, were resected aseptically. Necrotic tissues were cut away, and the remaining healthy tumor tissues were cut with scissors and minced into 1 mm^3 pieces in RPMI 1640 medium. Mice were then anesthetized and their abdomens were sterilized with alcohol. An incision was then created through the left upper abdominal pararectal line and peritoneum. The pancreas was carefully exposed and two tumor pieces were transplanted onto the middle of the gland using a single 8-0 surgical suture (Davis-Geck, Inc., Manati, Puerto-Rico). The pancreas was then returned into the peritoneal cavity, and the abdominal wall and the skin were closed in two layers using 6-0 surgical sutures. All procedures were performed with a 7× microscope (Olympus) or standard surgical loupes.
(§1) CS-682 (1-(2-C-cyano-2-deoxy-β-D-arabino-pentofuranosyl)-N^4-palmitoylcytosine, Sankyo Pharmaceuticals, Tokyo) was administered by oral gavage. Prior to the first treatment, mice were randomized into eight groups of 10 mice each for treatment purposes.
(§2) Groups 2, 3 and 4 received 40, 60 and 80 mg/kg/dose CS-682, respectively, each scheduled treatment day.
(§3) […] received 20, 30, 40 and 50 mg/kg/dose CS-682 twice each treatment day, respectively.
(§4) Dosing was initiated five days after surgical orthotopic implantation, and was performed five days each week until death.
External, in vivo whole body imaging, for at least once a week, mice were weighed and underwent external, in vivo imaging. This was performed in a fluorescent light box illuminated by fiberoptic lighting at 470 nm (Lightools Research, Encinitas, Calif.). Emitted fluorescence was collected through a long-pass filter GG475 (Chroma Technology, Battleboro, Vt.) on a Hamamatsu C5810 3-chip cooled color CCD camera (Hamamatsu Photonics Systems, Bridgewater, N.J.). […]

[2] = test system: MIA-PaCa-2-RFP pancreatic cancer; assay: Primary and adjuvant (after surgical resection) CS-682 in orthotopic MIA-PaCa-2-RFP metastatic pancreatic cancer mouse model (Example 2); format: in vivo, nude mice
Text: The efficacy of oral CS-682 in the adjuvant treatment of metastatic pancreatic cancer was studied. […] The study discussed below used a highly aggressive clone of the human pancreatic cancer cell line MIA-PaCa-2 pancreatic cancer cell line that was engineered, as discussed above, to selectively express high levels of the Discosoma red fluorescent protein. This brightly fluorescent model facilitated the noninvasive quantification of tumor burden throughout the course of treatment.
The MIA-PaCa-2 pancreatic cancer cell line and the animals used in the study were prepared as discussed in Example 1, with the following exceptions. Following orthotopic implantation of MIA-PaCa-2-RFP tumors, each mouse in a treatment group requiring surgical resection of the primary pancreatic tumor was anesthetized and prepared for surgery. The peritoneum was subsequently reopened through the original incision and an examination of adjacent structures was performed to ensure that macroscopic disease was localized to the pancreas. All grossly visible tumor was removed using sharp dissection. Hemostasis was achieved using 6-0 sutures. The abdomen was then closed in two layers.
(§5) Seven days after SOI, mice were randomized into eight groups of 10 mice each, depending upon whether they were to be treated by surgical resection, chemotherapy or both. Mice in groups 1-4 were not treated surgically. […] Mice in groups 2-4 were treated with primary CS-682 at doses of 40, 50 Or 60 mg/kg each treatment day, respectively, according to the treatment schedules outlined below.
(§6) Mice in groups 5-8 underwent surgical resection of their primary tumors 7 days after orthotopic implantation by a single blinded surgeon. Mice in group 5 received no additional chemotherapy; mice in groups 6-8 received adjuvant CS-682 at doses of 40, 50 or 60 mg/kg each treatment day, respectively.
(§7) CS-682 was administered by oral gavage. Treatment with primary or adjuvant CS-682 was initiated 9 days after orthotopic tumor implantation (2 days after surgical resection when applicable) and was to be administered five times each treatment week for a total of 5 weeks or until death. […] In these groups, CS-682 was administered 9 times in weeks 1 and 2 after SOI and then 10 times in weeks 4 and 5, with a treatment hiatus during week 3.
(§8) Twice/week, mice were weighed and underwent external in vivo imaging. This was performed in a fluorescent light box illuminated by fiberoptic lighting at 470 nm (Lightools Research, Encinitas Calif.). […] Emitted fluorescence was collected through a long-pass filter GG475 (Chroma Technology, Battleboro, Vt.) on a Hamamatsu C5810 3-chip cooled color charge-coupled device camera (Hamamatsu Photonics Systems, Bridgewater, N.J.). High-resolution images of 1024×724 pixels were captured directly on an IBM PC or continuously through video output on a high-resolution Sony VCR model SLV-R1000 (Sony Corp., Tokyo, Japan). Images were processed for contrast and brightness and analyzed with the use of Image Pro Plus 3.1 software (Media Cybernetics, Silver Spring, Md.). Real-time determination of tumor burden was performed by quantifying fluorescent surface area.
Mice were sacrificed and explored when they appeared premorbid. After euthanasia, each mouse underwent laparotomy and sternotomy. Excitation of RFP in the light box, described above, facilitated identification of primary and metastatic disease by fluorescence visualization. After performing full-body open images, the solid organs were removed, and their surfaces were thoroughly examined for any evidence of metastases. Fluorescence microscopy was accomplished using a Leica fluorescence stereo microscope model LZ12 (Leica Microsystems, Inc., Bannockburn, Ill.) equipped with a mercury 50-W lamp power supply. Selective excitation of RFP was produced through a […]. Emitted fluorescence was collected by the Hamamatsu camera system described above. […]

[3] = test system: tumor cell lines of the stomach, lung, colon and breast; details: oral CS-682; cited from earlier work
[4] = Body weight loss and toxicity of oral CS-682 in tumor-bearing nude mice (Example 1); format: in vivo; details: doses higher than 60 mg/kg per day, oral gavage
Protocol: as §1, §2, §3, §4
External, in vivo whole body imaging, for at least once a week, mice were weighed and underwent external, in vivo imaging. This was performed in a fluorescent light box illuminated by fiberoptic lighting at 470 nm (Lightools Research, Encinitas, Calif.). Emitted fluorescence was collected through a long-pass filter GG475 (Chroma Technology, Battleboro, Vt.) on a Hamamatsu C5810 3-chip cooled color CCD camera (Hamamatsu Photonics Systems, Bridgewater, N.J.). […] Images were processed for contrast and brightness and analyzed with the use of Image Pro Plus 3.1 software (Media Cybernetics, Silver Spring, Md.). Real-time determination of tumor burden was performed by quantifying fluorescent surface area, as described previously (Bouvet, M., et al., Cancer Res. (2002) 62:1534-1540).

[5] = test system: subcutaneously-implanted solid tumor xenografts; details: several subcutaneously-implanted solid tumor xenografts; cited from earlier work
[6] = Analysis of toxicity (body weight, general appearance) of CS-682 in Example 2 mice; format: in vivo; details: for body weight: oral gavage
Protocol: as §5, §6, §7, §8
The body weight and general appearance of each mouse were monitored and recorded twice weekly as evidence of systemic toxicity. […] Wasting of body fat, most pronounced in the interscapular area of the back, was a common late finding that occurred in conjunction with disseminated disease.

Structure (SMILES): CCCCCCCCCCCCCCCC(=O)Nc1ccn([C@@H]2O[C@H](CO)[C@@H](O)[C@@H]2C#N)c(=O)n1 [CS-682, 1-(2-C-cyano-2-deoxy-β-D-arabino-pentofuranosyl)-N^4-palmitoylcytosine]
- median survival ([1]; 20 mg/kg twice daily oral, p=0.003): 27 days
- tumor growth (mean area of external RFP autofluorescence) ([1]; 20 mg/kg twice daily, 40 mg/kg daily and 60 mg/kg daily, p<0.05 at each time point): inhibit pancreatic cancer growth
- median survival ([1]; 30 mg/kg twice daily oral): 19 days
- time until widespread tumor metastasis visible by whole-body RFP imaging ([1]; 40 mg/kg and 60 mg/kg daily, control within first two weeks): not visible until the third and fourth week post-implantation
- development of metastases at autopsy (diaphragm, portal nodes, liver, intestinal nodes, kidney) ([1]; 40 mg/kg daily): significantly inhibited the development of metastases
- median survival ([1]; 40 mg/kg daily oral, p=0.0008): 35 days
- mice with locally confined disease ([1]; 40 mg/kg daily, day 16 after implantation): 90%
- mice with evident intra-abdominal fluid (ascites) on examination ([1]; 40 mg/kg daily): 50%
- primary tumor average weight at autopsy ([1]; 40 mg/kg daily, control 5.163 g, p=0.16): 3.935 g
- median survival ([1]; 40 mg/kg twice daily oral): 19 days
- median survival ([1]; 50 mg/kg twice daily oral): 18 days
- effect on primary tumor growth (weight at autopsy) ([1]; 60 mg/kg daily (p=0.0004), 20 mg/kg twice daily (p=0.003)): significant effect on primary tumor growth
- median survival ([1]; 60 mg/kg daily oral, p=0.002): 36 days
- mice with evident intra-abdominal fluid (ascites) on examination ([1]; 60 mg/kg daily): 10%
- median survival ([1]; 80 mg/kg daily oral): 19 days
- mice that lived at least 60 days ([2]; adjuvant 50 mg/kg after surgical resection): 30%
- animals with at most local disease confined to one abdominal quadrant ([2]; adjuvant 50 mg/kg after surgical resection, day 23): 70%
- median survival ([2]; adjuvant 50 mg/kg after surgical resection, untreated 26 days, resection alone 28 days): 48 days
- time after completion of chemotherapy until distant metastasis seen ([2]; adjuvant 50 mg/kg, the 30% of mice with long-term survival): 10 days
- animals showing signs of fluid retention (ascites) at the time of their death ([2]; adjuvant CS-682 after surgical resection): 20%
- survival versus treatment controls ([2]; adjuvant CS-682 after surgical resection, all doses tested (40, 50, 60 mg/kg)): significant increase in survival over treatment controls
- survival versus untreated ([2]; primary CS-682 without resection, 40, 50 and 60 mg/kg): significantly enhanced the survival
- cytotoxic activity compared with parent compound CNDAC [3]: more potent cytotoxic activity than its parent compound
- toxicity-related death [4]: toxicity-related death was observed in a significant number of mice
- antitumor activity [5]: potent antitumor activity
- body weight ([6]; 40 mg/kg each treatment day): not associated with a significant loss in body weight
- body weight ([6]; 50 mg/kg each treatment day, chronic): did not lead to a significant loss of body weight
- loss in body weight ([6]; 60 mg/kg, by day 20, after first nine doses): 15%
- animals lost to toxicity ([6]; 60 mg/kg, modified schedule with hiatus in week 3, day 41): 1 animal
